One block for each molecule: values may come before it.
Assays:
[1] = biological target: T1, Muscle, skeletal receptor tyrosine-protein kinase (Homo sapiens) (UniProt O15146); conditions: at 10 µM
T1 sequence (whole entry): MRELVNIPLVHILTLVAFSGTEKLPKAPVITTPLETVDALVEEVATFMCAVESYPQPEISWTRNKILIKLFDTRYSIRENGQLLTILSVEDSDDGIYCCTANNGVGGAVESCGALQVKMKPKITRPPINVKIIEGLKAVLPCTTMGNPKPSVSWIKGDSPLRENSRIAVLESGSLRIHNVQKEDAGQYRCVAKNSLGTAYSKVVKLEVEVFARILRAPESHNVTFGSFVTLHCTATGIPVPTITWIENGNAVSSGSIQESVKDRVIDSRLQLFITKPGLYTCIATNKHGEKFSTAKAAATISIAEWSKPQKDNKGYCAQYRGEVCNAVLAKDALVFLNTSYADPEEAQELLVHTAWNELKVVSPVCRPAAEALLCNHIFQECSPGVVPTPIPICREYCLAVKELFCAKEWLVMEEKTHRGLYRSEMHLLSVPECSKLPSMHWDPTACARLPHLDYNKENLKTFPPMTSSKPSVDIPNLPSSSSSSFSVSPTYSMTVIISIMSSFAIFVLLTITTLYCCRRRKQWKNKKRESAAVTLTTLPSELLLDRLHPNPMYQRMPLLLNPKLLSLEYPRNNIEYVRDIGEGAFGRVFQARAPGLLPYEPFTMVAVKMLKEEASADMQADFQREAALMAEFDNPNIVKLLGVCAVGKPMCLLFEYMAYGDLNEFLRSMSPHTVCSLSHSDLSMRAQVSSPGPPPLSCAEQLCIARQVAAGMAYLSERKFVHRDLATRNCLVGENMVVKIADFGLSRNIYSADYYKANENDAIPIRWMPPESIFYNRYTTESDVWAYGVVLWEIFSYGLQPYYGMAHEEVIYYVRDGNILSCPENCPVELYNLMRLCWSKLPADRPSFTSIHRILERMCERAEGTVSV

[2] = biological target: Serine/threonine-protein kinase/endoribonuclease IRE1 (Homo sapiens) (UniProt O75460); assay: Selectivity interaction (Ambit KINOMEscan and KiNATiv profiling in Jurkat cells) EUB0000090b ERN1; assay type: cell-based; conditions: at 1 µM
[3] = biological target: Dual specificity mitogen-activated protein kinase kinase 1 (Homo sapiens, UniProt Q02750); assay: Selectivity interaction (Kinase panel (Invitrogen)) EUB0000639a MAP2K1; conditions: at 200 nM
[4] = biological target: T2, Eukaryotic elongation factor 2 kinase (Homo sapiens) (UniProt O00418); assay: Selectivity interaction (Kinase panel (literature)) EUB0001199aCl EEF2K; conditions: at 1 µM
T2 sequence (whole entry): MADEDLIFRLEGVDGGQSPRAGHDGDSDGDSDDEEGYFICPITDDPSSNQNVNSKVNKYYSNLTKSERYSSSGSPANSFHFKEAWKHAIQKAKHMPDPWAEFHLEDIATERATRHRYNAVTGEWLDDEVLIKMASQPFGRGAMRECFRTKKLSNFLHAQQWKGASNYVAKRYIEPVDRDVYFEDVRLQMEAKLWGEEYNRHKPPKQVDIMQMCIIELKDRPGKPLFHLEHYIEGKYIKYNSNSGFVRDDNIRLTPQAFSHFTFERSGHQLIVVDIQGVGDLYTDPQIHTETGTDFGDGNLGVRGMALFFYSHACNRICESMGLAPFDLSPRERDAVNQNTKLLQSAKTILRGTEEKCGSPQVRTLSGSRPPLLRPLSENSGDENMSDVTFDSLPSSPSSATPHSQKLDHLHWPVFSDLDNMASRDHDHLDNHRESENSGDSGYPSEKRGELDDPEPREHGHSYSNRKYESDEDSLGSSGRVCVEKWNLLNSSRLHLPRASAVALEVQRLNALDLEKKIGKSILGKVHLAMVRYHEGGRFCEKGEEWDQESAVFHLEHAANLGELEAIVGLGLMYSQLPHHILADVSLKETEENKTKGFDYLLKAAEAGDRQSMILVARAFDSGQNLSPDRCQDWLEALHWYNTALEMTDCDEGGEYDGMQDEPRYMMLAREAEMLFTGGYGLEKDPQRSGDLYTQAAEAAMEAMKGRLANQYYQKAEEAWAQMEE

[5] = biological target: Fibroblast growth factor receptor 2 (Homo sapiens) (UniProt P21802); assay: Selectivity interaction (KinomeScan (DiscoverX)) EUB0000695a FGFR2; conditions: at 100 nM
[6] = biological target: Mitogen-activated protein kinase kinase kinase 11 (Homo sapiens) (UniProt Q16584); assay: Selectivity interaction (KinomeScan (DiscoverX)) EUB0000695a MAP3K11; conditions: at 100 nM
[7] = biological target: Histone-lysine N-methyltransferase, H3 lysine-79 specific (Homo sapiens, UniProt Q8TEK3); assay: Selectivity interaction (Methyltransferase screen (radiometric assays, panel of 8 PRMTs, 21 protein lysine methyltransferases, 3 DNA methyltransferases, and one RNA methyltransferase)) EUB0000272b DOT1L
[8] = biological target: T3, Atypical kinase COQ8B, mitochondrial (Homo sapiens) (UniProt Q96D53); assay: Selectivity interaction (KinomeScan (DiscoverX)) EUB0000595a ADCK4; conditions: at 10 µM
T3 sequence (whole entry): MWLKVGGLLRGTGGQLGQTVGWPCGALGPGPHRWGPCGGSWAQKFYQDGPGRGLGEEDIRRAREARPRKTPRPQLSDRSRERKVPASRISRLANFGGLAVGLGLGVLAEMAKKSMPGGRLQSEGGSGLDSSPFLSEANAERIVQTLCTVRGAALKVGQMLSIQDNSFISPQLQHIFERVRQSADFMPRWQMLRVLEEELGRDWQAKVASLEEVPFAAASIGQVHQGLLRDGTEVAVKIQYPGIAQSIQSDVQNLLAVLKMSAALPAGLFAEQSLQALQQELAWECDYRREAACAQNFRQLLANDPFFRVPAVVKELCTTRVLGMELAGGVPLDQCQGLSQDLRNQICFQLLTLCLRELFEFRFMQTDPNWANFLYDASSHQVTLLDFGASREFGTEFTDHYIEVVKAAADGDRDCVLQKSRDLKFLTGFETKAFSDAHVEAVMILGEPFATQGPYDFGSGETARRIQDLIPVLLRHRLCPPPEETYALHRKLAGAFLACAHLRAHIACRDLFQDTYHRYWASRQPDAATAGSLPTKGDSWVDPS

[9] = biological target: Calcium/calmodulin-dependent protein kinase kinase 2 (Homo sapiens) (UniProt Q96RR4); assay: Selectivity interaction (ProQinase) EUB0000171b CAMKK2
[10] = biological target: Death-associated protein kinase 1 (Homo sapiens, UniProt P53355); assay: Selectivity interaction (KinomeScan (DiscoverX)) EUB0000045b DAPK1
[11] = biological target: Maternal embryonic leucine zipper kinase (Homo sapiens) (UniProt Q14680); assay: Selectivity interaction (KinomeScan (DiscoverX)) EUB0000655a MELK; conditions: at 10 µM
[12] = biological target: Tyrosine-protein kinase SYK (Homo sapiens, UniProt P43405); assay: Selectivity interaction (SelectScreen profiling (Invitrogen)) EUB0000607a SYK; conditions: at 2 µM

Calcium/calmodulin-dependent protein kinase kinase 2 (Homo sapiens), sequence (Q96RR4 2-588 limits assumed): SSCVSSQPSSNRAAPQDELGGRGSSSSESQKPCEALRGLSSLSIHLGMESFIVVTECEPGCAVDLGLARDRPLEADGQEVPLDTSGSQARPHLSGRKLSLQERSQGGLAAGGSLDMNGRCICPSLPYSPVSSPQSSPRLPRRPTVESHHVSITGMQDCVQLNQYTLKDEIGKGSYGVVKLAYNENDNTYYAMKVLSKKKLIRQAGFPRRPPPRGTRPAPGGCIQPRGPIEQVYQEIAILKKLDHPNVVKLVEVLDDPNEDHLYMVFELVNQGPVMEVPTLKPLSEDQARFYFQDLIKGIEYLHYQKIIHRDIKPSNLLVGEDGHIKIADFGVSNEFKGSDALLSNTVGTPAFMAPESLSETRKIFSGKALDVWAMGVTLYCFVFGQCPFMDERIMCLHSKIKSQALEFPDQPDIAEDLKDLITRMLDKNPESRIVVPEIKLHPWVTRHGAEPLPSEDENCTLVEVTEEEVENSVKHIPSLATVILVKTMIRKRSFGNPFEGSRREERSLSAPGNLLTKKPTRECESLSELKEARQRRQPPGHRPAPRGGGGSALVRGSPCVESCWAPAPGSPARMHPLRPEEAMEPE
Death-associated protein kinase 1, sequence (P53355 whole entry, looked up): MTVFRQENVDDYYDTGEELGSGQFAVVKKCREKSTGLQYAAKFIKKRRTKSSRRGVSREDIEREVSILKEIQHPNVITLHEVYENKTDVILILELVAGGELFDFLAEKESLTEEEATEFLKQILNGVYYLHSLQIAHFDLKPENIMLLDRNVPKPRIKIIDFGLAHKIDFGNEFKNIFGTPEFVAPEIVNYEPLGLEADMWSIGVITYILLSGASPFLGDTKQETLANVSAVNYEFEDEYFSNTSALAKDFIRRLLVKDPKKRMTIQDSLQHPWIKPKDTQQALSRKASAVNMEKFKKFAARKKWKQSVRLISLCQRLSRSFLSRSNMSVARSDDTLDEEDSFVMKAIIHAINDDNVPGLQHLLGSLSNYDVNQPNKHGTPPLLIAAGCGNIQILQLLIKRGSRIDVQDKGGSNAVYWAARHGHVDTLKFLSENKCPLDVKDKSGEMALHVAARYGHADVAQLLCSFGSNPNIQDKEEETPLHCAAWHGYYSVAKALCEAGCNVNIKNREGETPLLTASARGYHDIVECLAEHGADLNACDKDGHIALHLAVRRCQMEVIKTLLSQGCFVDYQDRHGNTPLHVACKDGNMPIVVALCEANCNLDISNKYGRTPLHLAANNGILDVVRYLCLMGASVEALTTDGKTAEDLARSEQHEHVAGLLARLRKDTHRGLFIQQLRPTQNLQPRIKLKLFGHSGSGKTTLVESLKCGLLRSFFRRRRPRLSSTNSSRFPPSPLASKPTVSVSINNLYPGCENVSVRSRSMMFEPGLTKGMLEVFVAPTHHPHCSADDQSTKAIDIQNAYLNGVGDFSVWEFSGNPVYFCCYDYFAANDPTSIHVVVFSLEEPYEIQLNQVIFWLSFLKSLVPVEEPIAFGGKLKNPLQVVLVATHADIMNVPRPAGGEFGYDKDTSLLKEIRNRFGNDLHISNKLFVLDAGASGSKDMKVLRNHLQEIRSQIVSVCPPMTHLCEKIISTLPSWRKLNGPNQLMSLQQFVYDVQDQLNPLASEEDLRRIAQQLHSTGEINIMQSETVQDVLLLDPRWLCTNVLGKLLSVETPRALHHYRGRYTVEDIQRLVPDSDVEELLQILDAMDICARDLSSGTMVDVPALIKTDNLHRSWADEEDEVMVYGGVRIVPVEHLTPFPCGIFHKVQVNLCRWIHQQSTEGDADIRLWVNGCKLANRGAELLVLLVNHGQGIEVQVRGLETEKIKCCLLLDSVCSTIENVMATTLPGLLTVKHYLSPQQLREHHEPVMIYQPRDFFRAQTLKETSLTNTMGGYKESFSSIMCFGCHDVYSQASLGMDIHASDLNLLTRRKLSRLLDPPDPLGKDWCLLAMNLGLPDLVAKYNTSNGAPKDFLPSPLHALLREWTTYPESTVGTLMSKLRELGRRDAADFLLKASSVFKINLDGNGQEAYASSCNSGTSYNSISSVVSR
Histone-lysine N-methyltransferase, H3 lysine-79 specific, sequence (Q8TEK3 whole entry, looked up): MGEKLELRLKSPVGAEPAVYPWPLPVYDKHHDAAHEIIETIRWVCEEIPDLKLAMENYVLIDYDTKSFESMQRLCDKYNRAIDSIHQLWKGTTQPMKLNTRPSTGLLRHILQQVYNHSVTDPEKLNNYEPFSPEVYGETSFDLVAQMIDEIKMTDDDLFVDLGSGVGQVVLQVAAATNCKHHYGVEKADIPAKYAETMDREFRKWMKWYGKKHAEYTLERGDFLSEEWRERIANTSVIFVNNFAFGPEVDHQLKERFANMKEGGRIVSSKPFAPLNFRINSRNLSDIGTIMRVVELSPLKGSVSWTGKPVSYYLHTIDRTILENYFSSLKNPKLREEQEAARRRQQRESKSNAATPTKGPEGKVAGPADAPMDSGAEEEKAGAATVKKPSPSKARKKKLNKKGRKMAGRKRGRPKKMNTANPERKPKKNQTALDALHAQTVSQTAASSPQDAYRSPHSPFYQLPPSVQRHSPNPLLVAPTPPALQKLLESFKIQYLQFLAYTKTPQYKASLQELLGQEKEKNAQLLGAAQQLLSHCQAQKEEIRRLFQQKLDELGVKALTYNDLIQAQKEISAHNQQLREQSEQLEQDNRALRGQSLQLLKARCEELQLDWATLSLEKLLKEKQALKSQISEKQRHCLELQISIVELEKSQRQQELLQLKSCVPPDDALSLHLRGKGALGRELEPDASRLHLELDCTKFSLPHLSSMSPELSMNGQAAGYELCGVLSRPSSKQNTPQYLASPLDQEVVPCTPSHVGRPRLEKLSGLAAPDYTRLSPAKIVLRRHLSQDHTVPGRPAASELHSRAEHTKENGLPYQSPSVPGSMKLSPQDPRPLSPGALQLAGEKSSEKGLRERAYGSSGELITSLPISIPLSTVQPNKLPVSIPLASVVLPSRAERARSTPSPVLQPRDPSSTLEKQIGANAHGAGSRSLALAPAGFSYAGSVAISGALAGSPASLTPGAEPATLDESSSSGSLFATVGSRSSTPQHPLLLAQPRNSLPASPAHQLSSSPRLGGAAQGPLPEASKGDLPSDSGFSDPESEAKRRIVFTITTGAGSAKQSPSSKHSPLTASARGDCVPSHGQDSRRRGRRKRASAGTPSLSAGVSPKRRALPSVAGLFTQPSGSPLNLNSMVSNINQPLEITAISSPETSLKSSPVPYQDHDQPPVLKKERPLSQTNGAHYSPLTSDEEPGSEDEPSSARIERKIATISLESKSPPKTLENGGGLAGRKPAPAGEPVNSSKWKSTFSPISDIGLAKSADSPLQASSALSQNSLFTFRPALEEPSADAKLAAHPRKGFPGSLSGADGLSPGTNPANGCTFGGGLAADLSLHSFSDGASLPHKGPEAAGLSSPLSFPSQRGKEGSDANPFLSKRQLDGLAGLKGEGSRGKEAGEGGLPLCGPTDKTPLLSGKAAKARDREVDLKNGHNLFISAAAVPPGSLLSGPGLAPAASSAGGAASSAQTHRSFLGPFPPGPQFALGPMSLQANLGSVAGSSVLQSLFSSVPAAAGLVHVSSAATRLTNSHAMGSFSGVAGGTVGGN
Maternal embryonic leucine zipper kinase (Homo sapiens), sequence (Q14680 whole entry, looked up): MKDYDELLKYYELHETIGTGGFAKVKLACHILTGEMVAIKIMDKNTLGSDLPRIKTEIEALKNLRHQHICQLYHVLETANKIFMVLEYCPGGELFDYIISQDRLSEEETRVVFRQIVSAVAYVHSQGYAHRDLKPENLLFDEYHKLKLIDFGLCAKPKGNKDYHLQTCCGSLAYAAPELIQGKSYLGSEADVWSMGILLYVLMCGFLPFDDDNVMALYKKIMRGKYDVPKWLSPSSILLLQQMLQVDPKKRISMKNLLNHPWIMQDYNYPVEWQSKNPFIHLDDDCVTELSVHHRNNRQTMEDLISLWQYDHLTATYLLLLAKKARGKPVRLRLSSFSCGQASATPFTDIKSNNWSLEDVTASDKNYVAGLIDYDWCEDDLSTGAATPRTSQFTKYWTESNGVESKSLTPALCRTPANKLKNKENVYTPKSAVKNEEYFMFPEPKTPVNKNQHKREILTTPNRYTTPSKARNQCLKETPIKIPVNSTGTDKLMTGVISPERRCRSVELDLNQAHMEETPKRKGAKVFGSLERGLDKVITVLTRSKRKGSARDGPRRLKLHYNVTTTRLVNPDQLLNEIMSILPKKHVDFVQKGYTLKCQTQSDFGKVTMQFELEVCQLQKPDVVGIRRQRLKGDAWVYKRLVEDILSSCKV
Mitogen-activated protein kinase kinase kinase 11 (Homo sapiens), sequence (Q16584 whole entry, looked up): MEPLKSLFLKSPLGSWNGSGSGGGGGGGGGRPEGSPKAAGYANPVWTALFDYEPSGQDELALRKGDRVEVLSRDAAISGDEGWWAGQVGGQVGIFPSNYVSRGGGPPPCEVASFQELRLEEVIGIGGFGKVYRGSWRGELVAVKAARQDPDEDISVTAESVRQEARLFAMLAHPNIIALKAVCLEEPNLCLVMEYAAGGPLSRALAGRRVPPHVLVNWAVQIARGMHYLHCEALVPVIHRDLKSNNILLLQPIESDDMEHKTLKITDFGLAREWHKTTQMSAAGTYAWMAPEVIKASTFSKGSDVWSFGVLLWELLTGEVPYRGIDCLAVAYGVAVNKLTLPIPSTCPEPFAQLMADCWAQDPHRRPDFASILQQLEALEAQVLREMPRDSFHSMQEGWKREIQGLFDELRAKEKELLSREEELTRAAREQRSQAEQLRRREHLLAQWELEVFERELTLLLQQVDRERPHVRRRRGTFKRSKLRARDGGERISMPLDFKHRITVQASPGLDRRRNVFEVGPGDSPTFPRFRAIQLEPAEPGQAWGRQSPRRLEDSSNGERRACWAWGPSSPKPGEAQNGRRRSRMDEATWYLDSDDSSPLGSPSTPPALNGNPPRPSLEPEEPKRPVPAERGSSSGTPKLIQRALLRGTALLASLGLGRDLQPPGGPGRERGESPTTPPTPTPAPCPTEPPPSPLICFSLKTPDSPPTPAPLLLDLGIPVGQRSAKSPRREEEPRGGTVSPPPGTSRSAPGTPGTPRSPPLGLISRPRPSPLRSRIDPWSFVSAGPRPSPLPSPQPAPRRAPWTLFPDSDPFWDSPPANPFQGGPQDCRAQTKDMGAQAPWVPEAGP

SMILES: Cc1cc([C@@H](C)Nc2ccccc2C(=O)O)c2nc(N3CCOCC3)cc(=O)n2c1 [AZD-6482]
- % of control [1]: 100%

SMILES: CN(C)C/C=C/C(=O)Nc1ccc(C(=O)N2CCCC(Nc3ncc(Cl)c(-c4c[nH]c5ccccc45)n3)C2)cc1 (stereo not given)
- % of control [2]: 92%

- % of inhibition [3]: 20.4%
SMILES: CC[C@@H]1[C@H](F)C(=O)N[C@@H]1COc1nccc2cc(C(N)=O)c(OC)cc12 [ZIMLOVISERTIB]

- % of inhibition [4]: -5%
SMILES: CN1Cc2nccc(-c3cn(C)nc3-c3ccc(F)cc3)c2C1=O

SMILES: Cc1cc(F)c(C(=O)Nc2cccc(-c3nncn3C(C)C)n2)cc1-n1cnc(C2CC2)c1
- % of control [5]: 97%
- % of control [6]: 79%

- % of activity ([7]; at 1 µM): 100%
- % of activity ([7]; at 10 µM): 94.3%
SMILES: Cc1cc(C)cc([C@H]2c3cc(C)ccc3NC(=O)CN2C(=O)c2ccc(Br)s2)c1

SMILES: COCC(=O)NC/C=C/c1ccc2ncnc(Nc3ccc(Oc4ccc(C)nc4)c(C)c3)c2c1 [CP-724714]
- % of control [8]: 98%

- % of control ([9]; at 1 µM): 83%
- % of control ([9]; at 5 µM): 86%
SMILES: C=CC(=O)Nc1cccc(C(=O)Nc2ccc(Nc3cc(-c4[nH]c(SC)nc4C)ccn3)cc2)c1

SMILES: C=CC(=O)Nc1cc(-n2c(=O)ccc3cnc4ccc(-c5ccc(NS(C)(=O)=O)cc5)cc4c32)ccc1C
- % of control ([10]; at 1 µM): 96%
- % of control ([10]; at 10 µM): 61%

SMILES: CN(C)CCOc1ccc(-c2nc(-c3ccncc3)c(-c3ccc4c(c3)CC/C4=N\O)[nH]2)cc1
- % of control [11]: 100%

SMILES: CNC(=O)Nc1ccc(-c2nc(N3CC4CCC(C3)O4)c3cnn(C4CCC5(CC4)OCCO5)c3n2)cc1
- % of inhibition [12]: 1%

Source: ChEMBL document CHEMBL5465560, “Selectivity Literature for EUbOPEN Chemogenomic Library” (2024)
